Source: patent US9957253B2, “Triaminopyrimidine compounds useful for preventing or treating malaria” (MMV MEDICINES FOR MALARIA VENTURE, priority 2014, dated 2018)
Structures can show the parent of a compound that is named as a salt. Where two headings read alike, the source gives them in different places.

Tests used:
[1] = test system: chloroquine sensitive NF54 strain of P. falciparum; experiment: In vitro antiplasmodial activity (SYBR I), NF54 strain; assay type: cell-based, Plasmodium falciparum; settings: Plasmodium falciparum
Method: Measuring In Vitro Antiplasmodial Activity
The test samples were tested in duplicate on two separate occasions against chloroquine sensitive NF54 (MRA-1000, MR4, ATCC, Manassas, Va.) and chloroquine-resistant K1 strains of P. falciparum. A modified method of Trager and Jensen was employed to maintain continuous in vitro cultures of asexual blood stages of P. falciparum (Trageret al., 1976, Science, 193, 673-675). Quantitative assessment of antiplasmodial activity in vitro was determined using the SYBR I method as described earlier (Johnson et al., 2007, Antimicrob. Agents Chemother., 51, 1926-1933).
The percent inhibition with respect to the drug-free control was plotted against the logarithm of drug concentration. The growth inhibition curves were fitted by nonlinear regression using the sigmoidal dose-response (variable slope) formula to yield the concentration-response curves. […] Chloroquine diphosphate (CQ) (Sigma), artesunate (Sigma), and pyrimethamine were used as reference drugs in all experiments.

hepatocytes [2] = experiment: Metabolic stability assay (hepatocyte Clint), human; assay type: in vitro ADME; settings: 1 μM compound
Method: (§1) Metabolic Stability Assay (Rat/Human Hepatocyte Clint)
(§2) Viability of cryopreserved hepatocytes was determined using trypan blue and the cell concentration was adjusted to 10^6 cells per mL with Leibovitz L-15 Buffer. 1 μM compound (in Acetonitrile; 0.01% DMSO) was incubated with 500 μL of hepatocytes (1 million cells per mL) in a NUNC plate. Reaction was stopped at different time points (0, 5, 15, 30, 60, 90 and 120 min) by addition of 3 volumes of chilled acetonitrile to 100 μL of reaction mixture and centrifuged at 4° C. for 15 min. Supernatants were analyzed using LC-MS/MS for substrate depletion.

hepatocytes [3] = experiment: Metabolic stability assay (hepatocyte Clint), rat; assay type: in vitro ADME; settings: 1 μM compound
Method: as §1, §2

human CYP 1A2 = biological target: T1, human CYP 1A2 (Homo sapiens, UniProt P05177); experiment: CYP inhibition assay, CYP 1A2; assay type: in vitro ADME
T1 sequence (P05177 1-516): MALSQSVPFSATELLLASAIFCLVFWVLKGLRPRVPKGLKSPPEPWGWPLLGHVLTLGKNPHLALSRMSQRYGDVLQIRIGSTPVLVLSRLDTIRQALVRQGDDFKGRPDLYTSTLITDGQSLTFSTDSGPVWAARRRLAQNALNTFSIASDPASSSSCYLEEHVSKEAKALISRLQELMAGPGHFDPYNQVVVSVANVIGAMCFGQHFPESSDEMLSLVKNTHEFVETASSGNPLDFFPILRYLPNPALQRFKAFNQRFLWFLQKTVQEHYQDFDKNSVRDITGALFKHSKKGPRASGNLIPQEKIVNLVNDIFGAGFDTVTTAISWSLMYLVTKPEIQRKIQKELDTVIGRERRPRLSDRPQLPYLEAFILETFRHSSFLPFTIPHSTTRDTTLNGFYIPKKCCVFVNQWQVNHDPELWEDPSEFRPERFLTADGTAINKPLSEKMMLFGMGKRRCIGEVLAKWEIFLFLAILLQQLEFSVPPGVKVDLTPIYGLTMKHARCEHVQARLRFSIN
Method: This study was conducted using specific substrates for 5 major human CYP isozymes. These substrates were used as a cocktail (phenacetin, diclofenac, S-mephenytoin, bufuralol and midazolam which are predominantly metabolised by CYP 1A2, 2C9, 2C19, 2D6 and 3A4/5, respectively) at concentrations equivalent to their respective Km values. LC-MS-MS (MRM mode) was used to follow the formation of the CYP specific metabolites. A decrease in the formation of the metabolites in peak area to vehicle control was used to calculate the IC50 value. […] Test compound was used at 6 different concentrations ([…]) to estimate IC50.
The incubation was carried out in 96 deep well plates. Mixture of 180 μL of 20 mg/mL HLM and 90 μL of substrate cocktail solution was added to 15840 μL of phosphate buffer and 179 μL of this mixture was mixed with 1 μL of the test compound, inhibitor cocktail solution or vehicle in each well. The final concentration of DMSO:ACN in the assay mix was 0.3:0.7% v/v. The incubation plate was placed into the water bath and pre-warmed at 37° C. for 5 min before the reactions were started by the addition of 20 μL of 10 mmol/L NADPH solution in phosphate buffer. After the addition of NADPH, the incubation plate was incubated at 37° C. for a further 5 min. The reaction was quenched by the addition of 1 volume (200 μL) of cold ACN containing 3% formic acid and 40 nmol/L verapamil. The plates were kept on ice for 20 min and then centrifuged at 4000 rpm for 30 min to precipitate protein. The supernatant 180 μL was transferred to the analysis plate for LC/MS/MS analysis.

[4] = Prediction of human PK parameters (well stirred model); settings: from human hepatocyte Clint and fu
Source text: Prediction of Human Pharmacokinetic (PK) Parameters Well stirred model was used for predicting human CL using human hepatocyte Clint and free fraction (fu) in human plasma. Liver blood flow rates, liver weights, hepatocellularity and in vitro in vivo correlation/extrapolation (IVIVC/E) templates routinely employed (Smith et al., Pharmacokinetics and Metabolism in Drug Design, Methods and Principles in Medicinal Chemistry Volume 13, 2004, Wiley-VCH, Weinheim, Germany) were used for prediction.

[5] = NF54 strain, chloroquine sensitive, read-out: Pf IC50—NF54
[6] = human liver microsomes, substrate cocktail, read-out: IC50 CYP 1A2

Compound | IC50 ([1]; NF54, read-out: Pf IC50—NF54) [µM] | Hep. Clint (hepatocytes [2]) [μl/min/1E6] | Hep. Clint (hepatocytes [3]) [μl/min/1E6] | IC50 (human CYP 1A2) [µM] | Predicted CLh blood [4] [L/h/kg] | IC50 [1, 5] [µM] | IC50 (human CYP 1A2; [6]) [µM]
CCc1cc(Nc2ncc(N3CCN[C@H](C)C3)c(Nc3cc(C)n(C)n3)n2)nc(C)c1F [Example 7, (R)—N4-(1,5-dimethyl-1H-pyrazol-3-yl)-N2-(4-ethyl-5-fluoro-6-methylpyridin-2-yl)-5-(3-methylpiperazin-1-yl)pyrimidine-2,4-diamine dihydrochloride] | 0.027 | 2.7 | 5.6 | > 30 | 0.198 |  | 
Cc1nc(Nc2ncc(N3CCN[C@H](C)C3)c(Nc3cnn(C)n3)n2)cc(C2CC2)c1Cl [Example 10, (R)—N2-(5-chloro-4-cyclopropyl-6-methylpyridin-2-yl)-N4-(2-methyl-2H-1,2,3-triazol-4-yl)-5-(3-methylpiperazin-1-yl)pyrimidine-2,4-diamine dihydochloride] |  | 1.8 | 8.3 |  | 0.186 | 0.013 | > 30
Cc1nc(Nc2ncc(N3CCN(C)[C@H](C)C3)c(Nc3cc(C)n(C)n3)n2)cc(C2CC2)c1F [Example 13, (R)—N2-(4-cyclopropyl-5-fluoro-6-methylpyridin-2-yl)-N4-(1,5-dimethyl-1H-pyrazol-3-yl)-5-(3,4-dimethylpiperazin-1-yl)pyrimidine-2,4-diamine] |  | 3.1 | 11.3 |  | 0.288 | 0.009 | > 30
